Measured values as given in ChEMBL document CHEMBL1201862, “PubChem BioAssay data set” (2004).
The source made the active and inactive calls.

Legend:
[1] = biological target: Fructose-bisphosphate aldolase (Mycobacterium tuberculosis, UniProt P9WQA3); assay: Fluorescence-based biochemical high throughput dose response assay for inhibitors of the fructose-bisphosphate aldolase (FBA) of M. tuberculosis.; format: functional
[2] = test system: Vero; assay: Vero cell toxicity, dose response, cytotoxicity control, plate reader, cherry-pick samples (AID 687020); format: functional, cell-based; conditions: Chlorocebus sabaeus
[3] = biological target: Melanocortin receptor 4 (Homo sapiens, UniProt P32245); format: functional, cell-based;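 further: Cell-based assay with luminescence read-out, confirmatory dose-response testing for agonist activity of biased ligands at MC4R; human U2OS cells with tagged receptor and beta-arrestin; potency of agonists that increase receptor coupling to beta-arrestin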
[4] = biological target: T1, Methionyl-tRNA synthetase, putative (Trypanosoma brucei brucei, UniProt Q38C91); format: functional, Trypanosoma brucei brucei strain 927/4 GUTat10.1
T1 sequence (Q38C91 whole entry): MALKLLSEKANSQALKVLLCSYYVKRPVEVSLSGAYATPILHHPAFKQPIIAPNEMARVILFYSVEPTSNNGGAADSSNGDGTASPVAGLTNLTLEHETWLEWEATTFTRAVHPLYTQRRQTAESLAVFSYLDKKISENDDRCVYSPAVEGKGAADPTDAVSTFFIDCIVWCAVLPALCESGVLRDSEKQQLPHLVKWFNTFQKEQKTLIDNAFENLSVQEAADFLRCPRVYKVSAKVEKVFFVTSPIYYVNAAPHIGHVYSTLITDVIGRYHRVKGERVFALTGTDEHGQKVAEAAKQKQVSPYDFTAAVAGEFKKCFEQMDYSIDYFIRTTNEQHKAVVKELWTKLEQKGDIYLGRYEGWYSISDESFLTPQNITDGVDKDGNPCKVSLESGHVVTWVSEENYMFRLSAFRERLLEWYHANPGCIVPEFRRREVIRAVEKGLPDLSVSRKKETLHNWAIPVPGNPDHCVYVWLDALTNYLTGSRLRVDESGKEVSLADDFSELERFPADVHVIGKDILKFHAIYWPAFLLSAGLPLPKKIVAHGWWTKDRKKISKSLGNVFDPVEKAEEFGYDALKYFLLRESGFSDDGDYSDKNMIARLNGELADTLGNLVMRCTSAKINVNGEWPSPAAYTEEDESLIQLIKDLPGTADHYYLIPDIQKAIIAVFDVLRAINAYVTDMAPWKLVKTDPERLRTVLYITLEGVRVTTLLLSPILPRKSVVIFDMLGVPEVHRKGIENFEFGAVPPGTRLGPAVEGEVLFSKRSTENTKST

[5] = Counterscreen for inhibitors of Trypanosoma brucei methionyl tRNA synthetase (MetRS): Luminescence-based cell-based high throughput dose response assay to identify compounds that are cytotoxic to Jurkat human T lymphocyte cells.; format: functional
[6] = biological target: T1, Methionyl-tRNA synthetase, putative; format: functional, Trypanosoma brucei brucei strain 927/4 GUTat10.1; remark: listed apart in the source
[7] = inhibitors of HIV Env-driven cell fusion, dose response, cherry-pick (AID 652057); format: functional, cell-based
[8] = CEM21 lymphoblast cell cytotoxicity, dose response, cytotoxicity control for viral fusion inhibitor project, CellTiter-Glo luminescence, cherry-picked (AID 652042); format: functional, cell-based;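 further: potency for signal decrease meaning cytotoxicity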
[9] = ZM109 Env clade C HIV-1 fusion inhibitors, dose response, HeLa effector, CEM target cells, luciferase, cherry-pick (AID 652058); format: functional, cell-based
[10] = off-target signal loss in HeLa-CEM21 co-culture – HeLa F-luc CTL cells, cherry-picked, counter-screen for HIV-1 Env fusion inhibitor project, dose response (AID 652040); format: functional, cell-based;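 further: potency for signal decrease marking cytotoxic or nonspecific inhibition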
[11] = inhibitors of clade B AD8 Env fusion, dose response, cell-based, cherry-pick (AID 652062); format: functional;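 further: luciferase signal from cell-cell fusion driven by HIV-1 clade B AD8 Env; potency is for inhibitors of fusion seen as a drop in luminescence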
[12] = biological target: Long-chain-fatty-acid--AMP ligase FadD28 (Mycobacterium tuberculosis, UniProt P9WQ59); assay: Fluorescence polarization aasay to screen for inhibitors that compete for the binding of FadD28 to a bisubstrate Measured in Biochemical System Using Plate Reader - 2147-01_Inhibitor_Dose_CherryPick_Activity.; format: functional, Mycobacterium tuberculosis H37Rv
[13] = biological target: Cytochrome P450 2D6 (Homo sapiens, UniProt P10635);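 further: CYP2D6 member of a cytochrome P450 panel assay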
[14] = biological target: T2, Cytochrome P450 1A2 (Homo sapiens, UniProt P05177);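 further: PubChem cytochrome P450 panel assay, CYP1A2 panel member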
T2 sequence (P05177 whole entry): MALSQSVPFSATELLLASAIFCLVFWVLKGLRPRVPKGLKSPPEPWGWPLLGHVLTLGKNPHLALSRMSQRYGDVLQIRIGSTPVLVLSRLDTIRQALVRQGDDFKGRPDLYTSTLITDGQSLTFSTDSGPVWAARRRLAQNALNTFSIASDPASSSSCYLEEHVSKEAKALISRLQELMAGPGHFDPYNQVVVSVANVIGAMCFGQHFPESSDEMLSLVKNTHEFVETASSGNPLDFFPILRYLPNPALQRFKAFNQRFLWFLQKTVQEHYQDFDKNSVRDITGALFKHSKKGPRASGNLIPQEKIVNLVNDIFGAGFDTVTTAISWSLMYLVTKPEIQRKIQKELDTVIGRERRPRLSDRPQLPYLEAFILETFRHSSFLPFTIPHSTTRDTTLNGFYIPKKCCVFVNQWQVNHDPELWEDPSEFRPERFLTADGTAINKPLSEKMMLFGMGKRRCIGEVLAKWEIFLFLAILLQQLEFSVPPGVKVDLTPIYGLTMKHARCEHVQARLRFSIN

[15] = biological target: Cytochrome P450 2C9 (Homo sapiens, UniProt P11712)
[16] = biological target: Genome polyprotein (dengue virus type 2, UniProt P29990); assay: Dengue-2 NS5 methyltransferase inhibitors, primary screen, biochemical, confirmation dose response (AID 588689); format: functional
[17] = biological target: T3, Sentrin-specific protease 8 (Homo sapiens, UniProt Q96LD8); format: functional
T3 sequence (Q96LD8 whole entry): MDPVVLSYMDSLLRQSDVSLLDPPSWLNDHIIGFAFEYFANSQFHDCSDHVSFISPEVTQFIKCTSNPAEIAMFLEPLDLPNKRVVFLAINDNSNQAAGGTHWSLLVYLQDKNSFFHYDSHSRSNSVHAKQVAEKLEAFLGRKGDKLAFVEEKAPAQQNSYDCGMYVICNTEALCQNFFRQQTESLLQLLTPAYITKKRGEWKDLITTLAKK

[18] = biological target: T3, Sentrin-specific protease 8; format: functional; remark: listed apart in the source
[19] = biological target: Beta-lactamase (Pseudomonas aeruginosa, UniProt Q79MP6);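 further: biochemical dose-response test of metallo-beta-lactamase enzyme inhibition, read out by epi-absorbance; purified recombinant IMP-1 metallo-beta-lactamase with nitrocefin as substrate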
[20] = biological target: Beta-lactamase (Salmonella choleraesuis (strain SC-B67), UniProt Q5J463)
[21] = cells; format: functional, cell-based
[22] = biological target: T4, Trace amine-associated receptor 1 (Homo sapiens, UniProt Q96RJ0); assay: Fluorescence-based cell-based high throughput dose response assay to identify agonists of the human trace amine associated receptor 1 (TAAR1).; format: functional
T4 sequence (Q96RJ0 whole entry): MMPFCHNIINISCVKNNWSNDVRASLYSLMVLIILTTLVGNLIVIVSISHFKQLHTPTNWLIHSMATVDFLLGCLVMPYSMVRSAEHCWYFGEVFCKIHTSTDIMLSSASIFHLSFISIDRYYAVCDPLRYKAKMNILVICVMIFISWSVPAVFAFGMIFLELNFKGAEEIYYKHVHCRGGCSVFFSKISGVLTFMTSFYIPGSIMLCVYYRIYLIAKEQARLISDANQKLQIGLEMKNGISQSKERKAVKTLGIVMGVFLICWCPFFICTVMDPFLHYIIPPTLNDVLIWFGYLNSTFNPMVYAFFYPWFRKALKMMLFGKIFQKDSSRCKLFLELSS

[23] = biological target: T4, Trace amine-associated receptor 1; assay: Counterscreen for agonists of the human trace amine associated receptor 1 (hTAAR1): Fluorescence-based cell-based high throughput dose response assay to identify hTAAR1 agonist that also desensitize TAAR1 receptor response.; format: functional
[24] = cells; format: functional, cell-based; remark: listed apart in the source
[25] = cytotoxicity in HPDE-C7 cells, cell-based, fluorescence, HTS (AID 430); format: functional; conditions: Homo sapiens
[26] = cytotoxicity in KRAS-transformed pancreatic duct cells, primary screen, cell-based, fluorescence, HTS (AID 431); format: functional; conditions: Homo sapiens;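 further: cell line used: HPDE-C7K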
[27] = growth suppression of PTEN-null colon cells, dose response, cell-based, HCT116 PTEN knockout (AID 1047); format: functional;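 further: HCT116 colon tumor cells with PTEN knocked out; cells exposed to compound for 60 hours before readout; potency for loss of cell viability measured by luminescence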
[28] = growth suppression of beta-catenin-knockout colon cells, dose response, cell-based, HCT116, human colon tumor (AID 1045); format: functional;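 further: HCT116 colon tumor cells with beta catenin knocked out; cells exposed to compound for 60 hours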
[29] = test system: H9c2; assay: cells; format: functional, cell-based; conditions: Rattus norvegicus, H9c2, Myocardium;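 further: confirmatory concentration-response retest of ultra-high-throughput screening hits for modulation of myocardial damage; cell death induced by hydrogen peroxide oxidative stress; compound pretreatment for 60 min then peroxide exposure for 2 h; potency is for protecting the cells against peroxide damage rather than for killing them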
[30] = biological target: ADP-ribosylation factor GTPase-activating protein 1 (Rattus norvegicus, UniProt Q62848); assay: Fluorescence polarization-based biochemical high throughput dose response screening assay to identify inhibitors of ADP-ribosylation factor GTPase activating protein 1 (ARFGAP1).; format: functional
[31] = biological target: T5, Endoribonuclease toxin MazF (Escherichia coli K-12, UniProt P0AE70); assay: MazF toxin RNase activators, dose response, biochemical, fluorescence, single-stranded RNA substrate, uHTS hits (AID 588481); format: functional
T5 sequence (P0AE70 whole entry): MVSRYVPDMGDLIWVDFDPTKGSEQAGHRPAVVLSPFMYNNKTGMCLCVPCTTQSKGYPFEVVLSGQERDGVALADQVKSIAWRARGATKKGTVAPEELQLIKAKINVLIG

[32] = biological target: Heat shock protein HSP 90-alpha (Homo sapiens, UniProt P07900); format: functional, organism-based
[33] = biological target: T5, Endoribonuclease toxin MazF; assay: fluorescent RNA oligo signal without MazF, dose response, counter-screen for MazEF activator project, biochemical, fluorescence, single-stranded RNase substrate (AID 588502); format: functional
[34] = biological target: T6, Probable nicotinate-nucleotide adenylyltransferase (Staphylococcus aureus (strain N315), UniProt P65502); format: functional, Staphylococcus aureus subsp. aureus N315;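 on IC50 Mean: confirmatory dose-response retesting of NadD inhibitor hits first found in an ultra-high-throughput screen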
[35] = biological target: T6, Probable nicotinate-nucleotide adenylyltransferase; format: functional, Staphylococcus aureus subsp. aureus N315; conditions: read-out: IC50_Mean

Fructose-bisphosphate aldolase, sequence (P9WQA3 whole entry): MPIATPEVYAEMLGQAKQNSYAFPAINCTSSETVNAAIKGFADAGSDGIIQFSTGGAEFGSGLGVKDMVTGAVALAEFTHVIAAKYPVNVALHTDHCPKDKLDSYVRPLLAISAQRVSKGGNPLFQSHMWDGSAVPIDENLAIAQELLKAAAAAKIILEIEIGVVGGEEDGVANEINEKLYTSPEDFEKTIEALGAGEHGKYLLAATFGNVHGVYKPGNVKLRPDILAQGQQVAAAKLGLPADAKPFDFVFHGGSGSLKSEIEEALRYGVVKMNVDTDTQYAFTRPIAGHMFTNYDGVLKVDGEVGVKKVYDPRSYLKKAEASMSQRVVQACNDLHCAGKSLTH
Melanocortin receptor 4, sequence (P32245 whole entry): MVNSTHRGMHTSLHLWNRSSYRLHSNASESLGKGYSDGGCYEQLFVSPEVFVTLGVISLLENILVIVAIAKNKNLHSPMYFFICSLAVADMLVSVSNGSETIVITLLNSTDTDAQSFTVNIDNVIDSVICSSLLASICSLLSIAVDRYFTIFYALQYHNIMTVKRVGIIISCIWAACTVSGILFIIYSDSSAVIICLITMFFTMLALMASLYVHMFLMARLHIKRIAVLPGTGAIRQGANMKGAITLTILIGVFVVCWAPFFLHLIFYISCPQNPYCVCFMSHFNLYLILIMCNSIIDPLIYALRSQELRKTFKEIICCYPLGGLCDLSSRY
Long-chain-fatty-acid--AMP ligase FadD28, sequence (P9WQ59 whole entry): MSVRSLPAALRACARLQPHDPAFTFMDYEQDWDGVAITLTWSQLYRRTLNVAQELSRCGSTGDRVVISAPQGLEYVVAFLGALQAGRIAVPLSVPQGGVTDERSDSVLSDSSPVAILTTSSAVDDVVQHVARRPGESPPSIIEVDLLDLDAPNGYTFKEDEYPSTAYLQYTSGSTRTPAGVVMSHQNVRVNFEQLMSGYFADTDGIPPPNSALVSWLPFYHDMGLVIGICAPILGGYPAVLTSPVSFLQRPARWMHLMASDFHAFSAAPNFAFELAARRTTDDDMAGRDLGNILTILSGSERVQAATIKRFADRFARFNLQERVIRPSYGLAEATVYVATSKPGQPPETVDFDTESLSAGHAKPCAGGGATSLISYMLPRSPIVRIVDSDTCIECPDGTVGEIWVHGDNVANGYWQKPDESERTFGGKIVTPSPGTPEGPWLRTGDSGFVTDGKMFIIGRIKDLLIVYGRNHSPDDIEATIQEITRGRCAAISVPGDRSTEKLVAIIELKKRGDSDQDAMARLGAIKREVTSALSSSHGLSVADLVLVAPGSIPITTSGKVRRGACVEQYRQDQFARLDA
T6 sequence (P65502 whole entry): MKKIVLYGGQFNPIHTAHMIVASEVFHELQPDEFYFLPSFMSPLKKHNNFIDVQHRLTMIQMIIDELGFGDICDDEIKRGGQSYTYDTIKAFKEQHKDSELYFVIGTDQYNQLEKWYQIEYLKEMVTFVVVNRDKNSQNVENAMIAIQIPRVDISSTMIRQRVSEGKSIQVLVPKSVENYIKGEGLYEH
ADP-ribosylation factor GTPase-activating protein 1, sequence (Q62848 whole entry): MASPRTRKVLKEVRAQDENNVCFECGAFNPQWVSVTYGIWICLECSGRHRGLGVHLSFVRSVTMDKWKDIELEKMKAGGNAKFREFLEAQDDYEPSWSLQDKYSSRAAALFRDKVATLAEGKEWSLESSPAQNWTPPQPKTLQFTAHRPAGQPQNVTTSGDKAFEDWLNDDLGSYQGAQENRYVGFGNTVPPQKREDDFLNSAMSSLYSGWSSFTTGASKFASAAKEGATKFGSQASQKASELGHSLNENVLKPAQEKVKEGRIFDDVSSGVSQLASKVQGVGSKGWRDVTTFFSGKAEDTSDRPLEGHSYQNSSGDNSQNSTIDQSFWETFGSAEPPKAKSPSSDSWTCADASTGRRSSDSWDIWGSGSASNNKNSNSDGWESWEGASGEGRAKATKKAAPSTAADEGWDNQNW
Cytochrome P450 2C9, sequence (P11712 whole entry): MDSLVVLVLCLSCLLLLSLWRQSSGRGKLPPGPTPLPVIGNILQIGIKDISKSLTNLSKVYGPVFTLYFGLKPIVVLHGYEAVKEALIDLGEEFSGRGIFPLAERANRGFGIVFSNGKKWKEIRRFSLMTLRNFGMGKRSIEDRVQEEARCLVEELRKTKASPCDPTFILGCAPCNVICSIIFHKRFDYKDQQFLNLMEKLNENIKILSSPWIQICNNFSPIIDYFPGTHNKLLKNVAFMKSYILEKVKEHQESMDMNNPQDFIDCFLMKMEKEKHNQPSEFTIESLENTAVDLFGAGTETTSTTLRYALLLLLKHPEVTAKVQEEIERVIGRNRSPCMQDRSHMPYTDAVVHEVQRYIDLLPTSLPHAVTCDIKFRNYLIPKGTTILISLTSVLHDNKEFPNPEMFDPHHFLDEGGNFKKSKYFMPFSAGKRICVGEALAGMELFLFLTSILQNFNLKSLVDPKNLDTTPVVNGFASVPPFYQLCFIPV
Cytochrome P450 2D6, sequence (P10635 whole entry): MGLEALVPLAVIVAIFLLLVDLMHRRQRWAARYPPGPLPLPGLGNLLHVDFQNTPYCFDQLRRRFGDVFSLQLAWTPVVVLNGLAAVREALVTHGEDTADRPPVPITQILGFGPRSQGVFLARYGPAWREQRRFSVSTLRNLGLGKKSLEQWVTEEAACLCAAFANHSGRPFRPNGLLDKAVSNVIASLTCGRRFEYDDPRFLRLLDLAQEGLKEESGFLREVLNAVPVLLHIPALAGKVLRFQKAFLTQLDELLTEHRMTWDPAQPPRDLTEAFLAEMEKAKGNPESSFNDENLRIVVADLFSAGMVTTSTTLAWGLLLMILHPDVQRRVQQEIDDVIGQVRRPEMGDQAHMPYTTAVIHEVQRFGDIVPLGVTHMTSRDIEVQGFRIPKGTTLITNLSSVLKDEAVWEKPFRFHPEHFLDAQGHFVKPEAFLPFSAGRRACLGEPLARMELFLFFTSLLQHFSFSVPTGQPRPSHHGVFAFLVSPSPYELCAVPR
Genome polyprotein, sequence (P29990 2492-3391 limits assumed): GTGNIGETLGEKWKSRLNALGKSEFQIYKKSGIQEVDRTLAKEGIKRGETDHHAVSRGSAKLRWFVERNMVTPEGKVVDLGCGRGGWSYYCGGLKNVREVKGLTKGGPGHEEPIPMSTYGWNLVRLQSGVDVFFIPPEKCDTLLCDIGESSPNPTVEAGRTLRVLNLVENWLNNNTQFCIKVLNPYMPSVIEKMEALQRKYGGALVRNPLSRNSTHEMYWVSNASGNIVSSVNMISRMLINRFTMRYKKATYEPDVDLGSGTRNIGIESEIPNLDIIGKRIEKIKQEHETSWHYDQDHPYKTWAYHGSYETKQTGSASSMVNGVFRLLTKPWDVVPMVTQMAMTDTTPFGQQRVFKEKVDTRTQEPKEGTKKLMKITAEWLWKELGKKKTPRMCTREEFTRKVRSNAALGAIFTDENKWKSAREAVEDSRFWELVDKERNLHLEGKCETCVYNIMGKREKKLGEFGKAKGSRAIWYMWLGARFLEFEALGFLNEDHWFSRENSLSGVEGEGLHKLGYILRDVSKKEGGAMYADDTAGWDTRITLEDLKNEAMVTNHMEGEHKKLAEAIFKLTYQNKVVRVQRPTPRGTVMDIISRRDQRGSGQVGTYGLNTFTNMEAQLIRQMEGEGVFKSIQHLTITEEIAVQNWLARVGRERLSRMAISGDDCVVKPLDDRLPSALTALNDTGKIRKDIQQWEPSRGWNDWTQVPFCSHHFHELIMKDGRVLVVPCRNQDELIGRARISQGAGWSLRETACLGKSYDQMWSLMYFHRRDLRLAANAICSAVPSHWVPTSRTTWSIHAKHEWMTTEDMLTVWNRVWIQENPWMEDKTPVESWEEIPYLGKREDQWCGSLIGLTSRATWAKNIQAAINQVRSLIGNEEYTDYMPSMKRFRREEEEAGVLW
Beta-lactamase (Pseudomonas aeruginosa, UniProt Q79MP6), sequence (Q79MP6 whole entry): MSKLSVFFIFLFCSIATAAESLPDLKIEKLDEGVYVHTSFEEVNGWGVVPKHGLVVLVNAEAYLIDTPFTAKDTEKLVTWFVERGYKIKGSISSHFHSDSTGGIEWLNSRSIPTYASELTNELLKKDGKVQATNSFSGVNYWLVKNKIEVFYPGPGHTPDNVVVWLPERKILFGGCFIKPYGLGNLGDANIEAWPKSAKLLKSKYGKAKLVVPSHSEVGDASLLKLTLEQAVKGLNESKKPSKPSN
Beta-lactamase (Salmonella choleraesuis (strain SC-B67), UniProt Q5J463), sequence (Q5J463 whole entry): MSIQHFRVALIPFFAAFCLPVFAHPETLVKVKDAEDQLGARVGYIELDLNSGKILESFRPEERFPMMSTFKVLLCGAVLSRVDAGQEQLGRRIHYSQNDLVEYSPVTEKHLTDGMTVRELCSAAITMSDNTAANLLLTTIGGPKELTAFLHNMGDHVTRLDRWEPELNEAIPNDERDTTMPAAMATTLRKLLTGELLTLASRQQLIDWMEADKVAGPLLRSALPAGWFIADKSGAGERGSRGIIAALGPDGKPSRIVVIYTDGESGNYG

For `O=C(Nc1ccc2c(c1)OCCO2)c1cccs1`, the IC50 [1] was > 9.98 µM (inactive).

For `COC(=O)C[C@H]1c2cc(C(F)(F)F)ccc2S(=O)(=O)N1Cc1ccc(OC)cc1`, the AC50 [2] was 34.6 µM (active).

With `NC(Cc1ccc(C(F)(F)F)cc1)c1csc(NC(=O)Nc2ccccc2)n1` (stereo not drawn) the EC50 [3] was > 89.2 µM (inactive), the IC50 [4] was 1.47 µM (active) and the IC50 [5] was 24.7 µM (inactive). The IC50 [6] was 2.39 µM (active), the AC50 [7] was 2.85 µM (active) and the AC50 [8] was 11.3 µM (active). For the same compound, the AC50 [9] was 2.21 µM (active), the AC50 [10] was 3.13 µM (active) and the AC50 [11] was 8.46 µM (active).

For `Cc1ccc(NC(=O)Cn2cccc2C2=NC(c3ccccc3)CO2)cc1C` (stereo not drawn), the AC50 [2] was 27.9 µM (active).

In the case of `COc1ccccc1NCc1nnc(SCC(=O)N/N=C/c2ccco2)n1-c1ccc(Cl)cc1Cl`, the AC50 [12] was > 100 µM (inactive), the AC50 [13] was 28.2 µM (inconclusive) and the AC50 [14] was 28.2 µM (inconclusive). For the same compound, the AC50 [15] was 35.5 µM (inconclusive).

With `CSc1nccc(Oc2ccccc2Cl)n1` the IC50 [1] was > 9.99 µM (inactive).

For `O=C1CC(Nc2ccc([N+](=O)[O-])cc2)=NN1c1c(Cl)cc(Cl)cc1Cl`, the IC50 [16] was 48.4 µM (active), the IC50 [17] was 12.3 µM (active) and the IC50 [18] was 16 µM (active).

For `O=C(CCN1C(=O)/C(=C/c2ccc(Cl)cc2)SC1=S)NCCCn1ccnc1`, the IC50 [19] was > 59.6 µM (inactive) and the IC50 [20] was > 59.6 µM (inactive).

For `O=C(c1ccccc1)[C@@H]1[C@@H](C(=O)c2ccc(F)cc2)[C@@]2(C(=O)Nc3ccccc32)[C@H]2c3ccccc3C=CN12`, the IC50 [17] was 12.1 µM (active) and the IC50 [18] was 1.21 µM (active).

With `CCCCC(CC)CNC(=O)C1C2C=CC(C2)C1C(=O)O` (stereo not drawn) the IC50 [21] was > 29.9 µM (inactive), the EC50 [22] was > 29.9 µM (inactive) and the IC50 [23] was > 29.9 µM (inactive). For the same compound, the EC50 [24] was > 29.9 µM (inactive).

For `COc1cccc(NC(=O)CC(=O)c2ccc([N+](=O)[O-])cc2)c1`, the AC50 [12] was 94.1 µM (active).

For `Cc1cccc(NS(=O)(=O)c2ccc3nc(-c4ccccc4)[nH]c3c2)c1C`, the IC50 [4] was 119 µM (inactive) and the IC50 [6] was 14.6 µM (inactive).

For `O=C(CCN1CCC(c2ccccc2)C1)c1cccs1` (stereo not drawn), the EC50 [25] was > 20 µM (not active), the EC50 [26] was > 20 µM (not active) and the EC50 [27] was 34.1 µM (active). For the same compound, the EC50 [28] was 29.3 µM (active), the IC50 [21] was > 29.9 µM (inactive) and the EC50 [22] was 0.157 µM (active). For the same compound, the IC50 [23] was 1.49 µM (active) and the EC50 [24] was > 29.9 µM (inactive).

In the case of `COC(=O)c1cccc(Nc2nc(-c3cccnc3)nc3ccccc23)c1`, the IC50 [29] was 4.96 µM (active) and the IC50 [30] was 38.3 µM (inactive).

For `Cc1ccc(-c2nn(-c3ccccc3)cc2/C=C/C(=O)Nc2nccs2)cc1`, the IC50 [30] was 20.3 µM (inactive).

With `COc1ccc2oc(=O)c(-c3csc(Nc4cccc(O)c4)n3)cc2c1` the EC50 [31] was > 99 µM (inactive), the AC50 [32] was 7.16 µM (active) and the EC50 [33] was > 99 µM (inactive). The EC50 [3] was > 89.2 µM (inactive), the IC50 [34] was 19.2 µM (active) and the IC50 [35] was 29 µM (active).

For `CCOc1ccc(C(O)(CCC(C)C)C(CN2CCOCC2)c2ccccc2)cc1` (stereo not drawn), the AC50 [7] was 3.6 µM (active), the AC50 [8] was 26.8 µM (active) and the AC50 [9] was 3.65 µM (active). For the same compound, the AC50 [10] was 5.42 µM (active) and the AC50 [11] was 9.83 µM (active).
